Measurements published in patent US5521193A, “Benzimidazole compounds” (G. D. Searle & Co., priority 1995, dated 1996).

Molecular target: T1, 5-HT4 receptor (Rattus norvegicus, UniProt Q62758)
T1 construct: One 2 cm segment of intrathoracic esophagus proximal to the diaphragm was removed from male rats; from tissue; host or cells: rat intrathoracic oesophagus, inner tunica muscularis mucosae
Test: biochemical
Conditions: carbachol (3 μM)-contracted rat esophagus TMM; 37° C.; tissues from 5 rats; read-out: 5-HT4 Agonism (Rat TMM) In Vitro Assay: EC50 Values
Experimental: 5-HT4 agonist activity was determined in the in vitro rat tunice muscularis mucosae (TMM) assay. (Baxter et el., Naunyn Schmied Arch. Pharmacol, 1991, 343,439). The 5-HT4 agonist or antagonist activity and/or 5-HT3 antagonist activity of the compounds of the invention herein, can be determined by the assays as described herein, without undue experimention.
Agonist activity was determined utilizing relaxation of carbachol-contracted rat tunica muscularis mucosae. One 2 cm segment of intrathoracic esophagus proximal to the diaphragm was removed from male rats, weighing approximately 300 gm, and the outer muscle layers removed. The inner tunica muscularis mucosa was mounted under 0.2-0.3 g of tension in a tissue bath containing oxygenated Tyrode's solution at 37° C. […] Following a 30 min equilibrium period, tissues were isometrically contracted with carbachol (3 μM) to obtain a tonic contraction. A stable plateau was obtained within 20 min when test compound was added cumulatively to relax the muscle strip. EC50 values were obtained for each agonist in tissues from 5 rats.

T1 sequence (Q62758 whole entry): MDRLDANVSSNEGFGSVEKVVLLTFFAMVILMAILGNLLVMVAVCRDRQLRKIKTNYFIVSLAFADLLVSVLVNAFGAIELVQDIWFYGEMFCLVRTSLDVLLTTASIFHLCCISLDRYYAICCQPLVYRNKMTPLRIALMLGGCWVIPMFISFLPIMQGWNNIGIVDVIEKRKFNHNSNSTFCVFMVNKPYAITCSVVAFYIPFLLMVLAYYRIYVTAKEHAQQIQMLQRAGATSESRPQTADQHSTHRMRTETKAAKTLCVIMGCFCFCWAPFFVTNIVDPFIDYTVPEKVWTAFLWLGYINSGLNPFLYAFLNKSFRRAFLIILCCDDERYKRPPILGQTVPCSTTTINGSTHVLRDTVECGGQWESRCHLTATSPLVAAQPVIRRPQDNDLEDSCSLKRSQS

| SMILES | EC50 |
| --- | --- |
| CC(C)n1c(=O)n(C(=O)NC[C@@H]2CN3CC[C@H]2C3)c2ccccc21 (relative stereo) [Example 35, N-[(endo-1-azabicyclo[2.2.1]heptan-3-yl)methyl-]-2,3-dihydro-3-(1-methylethyl) -2-oxo-1H-benzimidazole-1-carboxamide] | 294 nM |
| CC(C)n1c(=O)n(C(=O)NC[C@H]2CN3CC[C@H]2C3)c2ccccc21 (relative stereo) [Example 36, N-[(exo-1-azabicyclo[2.2.1]heptan-3-yl)methyl-]-2,3-dihydro-3-(1-methylethyl) 2-oxo-1H-benzimidazole-1-carboxamide] | 302 nM |
| CC(C)n1c(=O)n(C(=O)NCCC23CCCN2CCC3)c2cc(Cl)ccc21 [Example 12A, 6-Chloro-N-[2-(hexahydro-7aH-pyrrolizin-7a-yl)ethyl]2,3-dihydro-3-(1-methylethyl)-2-oxo-1H-benzimidazole 1-carboxamide] | 1360 nM |
| CC(C)n1c(=O)n(C(=O)NCCC23CCCN2CCC3)c2cc(Cl)c(N)cc21 [Example 12B, 6-Chloro-5-amino-N-[2-(hexahydro-7aH-pyrrolizin-7a-yl)ethyl]-2,3-dihydro-3-(1-methylethyl)-2-oxo-1H-benzimidazole-1-carboxamide] | 374 nM |
| CC(C)n1c(=O)n(C(=O)N[C@H]2C[C@@H]3CN(C)C[C@@H]3C2)c2ccccc21 [Example 14A] | 874 nM |
| CC(C)n1c(=O)n(C(=O)NCC2C3CC4CC2CN(C4)C3)c2ccccc21 (stereo not drawn) [Example 19B, N-(1-azatricyclo[3.3.1.1.^3,7]decan-4-ylmethyl)-2,3-dihydro-3-(1-methylethyl) 2-oxo-1H-benzimidazole-1-carboxamide] | 926 nM |
| CC(C)n1c(=O)n(C(=O)NCC2C3CC4CC2CN(C4)C3)c2cc(Cl)ccc21 (stereo not drawn) [Example 22C, N-(1-azatricyclo[3.3.1.1^3,7]decan-4-ylmethyl)-6-chloro-2,3-dihydro-3-(1-methylethyl) 2-oxo-1H-benzimidazole-1-carboxamide] | 722 nM |
| CC(C)n1c(=O)n(C(=O)NCC2C3CC4CC2N(C4)C3)c2ccccc21 (stereo not drawn) [Example 29, N-[(Hexahydro-2β,6β-methano-1H, 7aα-pyrrolizin-1β-yl)methyl]2,3-dihydro-3-(1-methylethyl)-2-oxo-1H-benzimidazole-1-carboxamide] | 1630 nM |
| CC(C)n1c(=O)n(C(=O)NCC2C3CC4CC2N(C4)C3)c2ccccc21 (stereo not drawn) [Example 30, N-[(Hexahydro-2β,6β-methano-1H, 7aα-pyrrolizin-1α-yl)methyl]2,3-dihydro-3-(1-methylethyl)-2-oxo-1H-benzimidazole-1-carboxamide] | 219 nM |
| CC(C)n1c(=O)n(C(=O)NCC2C3CC4CC2CN4C3)c2ccccc21 (stereo not drawn) [Example 32, N-(Hexahydro-2,6-methano-1H-pyrrolizin-8-ylmethyl]-2,3-dihydro-3(1-methylethyl)-2-oxo-1H-benzimidazole-1-carboxamide] | 1320 nM |
| CC(C)n1c(=O)n(C(=O)NCC23CC4CN(CC4C2)C3)c2ccccc21 [Example 33, N-[(Hexahydro-2,5β-methano-1H-3aα,6aα-cyclopenta-[c]pyrrol-5-yl)methyl]-2,3-dihydro 3-(1-methylethyl)-2-oxo-1H-benzimidazole-1-carboxamide] | 337 nM |
| CC(C)n1c(=O)n(C(=O)NCC23CC4CN(CC4C2)C3)c2cc(Cl)ccc21 [Example 34, N-[(Hexahydro-2,5β-methano-1H-3aα,6aα-cyclopenta[c]-pyrrol-5-yl)methyl]-6-chloro-2,3-dihydro-3-(1-methylethyl)-2-oxo-1-benzimidazole-1-carboxamide] | 248 nM |
